{
  "source": "patent US20050191628A1",
  "about": "“Antibiotics based upon bacteriophage lysis proteins” (priority 1999, published 2005)",
  "key": {"MraY": {"biological_target": "T1, MraY (Escherichia coli, UniProt P0A6W3)", "T1 construct": "endogenous in cells; host or cells: E. coli K-12 ET505 (W3110 lysA::Tn10) membranes, carrying pJFlacZK (control) or pEmycZK (E-expressing)", "T1 sequence (P0A6W3 1-360)": "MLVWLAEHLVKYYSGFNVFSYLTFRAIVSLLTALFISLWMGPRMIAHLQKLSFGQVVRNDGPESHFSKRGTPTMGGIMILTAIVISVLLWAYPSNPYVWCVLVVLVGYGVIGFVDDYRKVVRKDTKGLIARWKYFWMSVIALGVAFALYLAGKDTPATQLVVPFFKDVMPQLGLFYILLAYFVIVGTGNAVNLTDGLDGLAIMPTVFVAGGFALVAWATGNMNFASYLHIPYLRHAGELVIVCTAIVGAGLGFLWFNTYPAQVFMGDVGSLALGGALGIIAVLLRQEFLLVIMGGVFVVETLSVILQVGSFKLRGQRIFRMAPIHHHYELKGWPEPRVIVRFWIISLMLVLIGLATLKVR", "format": "biochemical, E. coli", "conditions": "membranes of ET505 strains; average of 3 experiments ± standard deviation (tunicamycin: average of duplicates)"}, "Rfe": {"biological_target": "T2, Rfe (Escherichia coli, UniProt P0AC78)", "T2 construct": "endogenous in cells; host or cells: E. coli K-12 ET505 (W3110 lysA::Tn10) membranes, carrying pJFlacZK (control) or pEmycZK (E-expressing)", "T2 sequence (P0AC78 1-367)": "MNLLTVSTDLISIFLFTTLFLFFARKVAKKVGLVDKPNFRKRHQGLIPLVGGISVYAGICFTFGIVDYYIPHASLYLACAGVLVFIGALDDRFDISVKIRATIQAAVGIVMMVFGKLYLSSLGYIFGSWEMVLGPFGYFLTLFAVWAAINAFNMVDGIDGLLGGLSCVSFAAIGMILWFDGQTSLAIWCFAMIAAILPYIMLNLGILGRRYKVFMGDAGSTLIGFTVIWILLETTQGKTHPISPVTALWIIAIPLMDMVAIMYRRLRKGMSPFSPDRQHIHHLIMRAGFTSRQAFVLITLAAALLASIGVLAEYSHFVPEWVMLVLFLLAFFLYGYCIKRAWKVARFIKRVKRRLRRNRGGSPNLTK", "format": "biochemical, E. coli", "conditions": "membranes of ET505 strains; average of 3 experiments ± standard deviation"}},
  "data": [
    {"substance": "tunicamycin", "values": [
      {"measurement": "cpm of [3H]-UMP converted to [3H]-UDP-MurNAc-pentapeptide in membrane preparations by MraY", "setting": "MraY", "result": 2000, "unit": "cpm"},
      {"measurement": "cpm of [3H]-UMP converted to [3H]-UDP-GlcNAc in membrane preparations by Rfe", "setting": "Rfe", "result": "3400 ± 500", "unit": "cpm"}
    ]}
  ]
}
